Results from PubChem BioAssay AID1996.
Converted amounts (≈) assume the structure as drawn.

Settings: buffer; pH 7.4; 200.0 µM
Work on `O=C(c1c[nH]c2ccccc12)N1CCN(c2ccccc2)CC1` yielded a solubility kinetic of over 45.8 µg/mL.
`COc1ccc(NC(=O)c2ccccc2)c([N+](=O)[O-])c1` showed a solubility kinetic of 2.1 µg/mL (≈ 7.71 µM).
With `Cn1c(=O)c(=O)n(C)c2cc([N+](=O)[O-])c(N3CCOCC3)cc21` the solubility kinetic was over 48 µg/mL.
`COc1ncnc(-c2ccccc2)c1-c1ccccc1` gave a solubility kinetic of 14.9 µg/mL (≈ 56.8 µM).
`Cc1cccc(C(=O)NCC(=O)N2CCN(c3ccccn3)CC2)c1` gave a solubility kinetic of over 50.8 µg/mL.
In the case of `Cc1ccc(Sc2ncccc2[N+](=O)[O-])cc1`, the solubility kinetic was 2.8 µg/mL (≈ 11.4 µM).
With `CC(C)C(=O)Nc1ncc(Cc2ccccc2Cl)s1` the solubility kinetic was under 0.3 µg/mL.
`CC(O)CNc1nc2c(c(=O)n(Cc3ccccc3)c(=O)n2C)n1C` (stereo unspecified) gave a solubility kinetic of over 51.5 µg/mL.
For `Cc1nn(CC(=O)NC2CCCCC2)c(=O)c2cccn12`, the solubility kinetic was over 43.3 µg/mL.
In the case of `CCOc1ccc(N=C2NC(=O)CS2)cc1`, the solubility kinetic was over 35.4 µg/mL.
Work on `CCN(CC)CCN=Cc1c(O)n(Cc2ccco2)c(=O)[nH]c1=O` yielded a solubility kinetic of over 50.2 µg/mL.
Molecule `O=C(O)CSc1nc2ccccc2nc1Cc1ccccc1F` has a solubility kinetic of 47.7 µg/mL (≈ 145 µM).
Molecule `CC(=O)Oc1ccc(C(=O)NCc2ccco2)cc1` has a solubility kinetic of 37.6 µg/mL (≈ 145 µM).
In the case of `C[C@@H](NC(=O)[C@@H]1Cc2ccccc2CN1)C(=O)NC1CCCC1`, the solubility kinetic was over 47.3 µg/mL.
Work on `CC12CC3CC(C)(C1)CC(C(=O)N1CCCC1)(C3)C2` yielded a solubility kinetic of 3.9 µg/mL (≈ 14.9 µM).
With `Cc1cc(C(=O)N/N=C/c2cn(C)nc2C)c2ccccc2n1` the solubility kinetic was over 46.1 µg/mL.
For `Cc1c([N+](=O)[O-])c2ccc(O)cc2n1-c1ccccc1`, the solubility kinetic was 1 µg/mL (≈ 3.73 µM).
`CCCCc1nc2cc(C(=O)N3CCC(O)CC3)ccc2o1` showed a solubility kinetic of over 45.4 µg/mL.
`CCOC(=O)/C(C#N)=C1\CC2CCC1(C)C2(C)C` (stereo unspecified) showed a solubility kinetic of 1.7 µg/mL (≈ 6.87 µM).
Work on `COc1ccccc1/C=C/C(=O)NC(=S)N1CCN(C)CC1` yielded a solubility kinetic of over 47.9 µg/mL.
With `O=C(c1ccc(=O)[nH]c1)N1CCCc2ccccc21` the solubility kinetic was over 38.1 µg/mL.
Work on `Cc1cc(C)c(S(=O)(=O)NCc2cccnc2)c(C)c1` yielded a solubility kinetic of over 43.6 µg/mL.
With `NC1=NC(=O)/C(=C/c2ccc(Br)cc2)S1` the solubility kinetic was 1.8 µg/mL (≈ 6.36 µM).
`COCCNC(=O)/C(C#N)=C/c1cccs1` gave a solubility kinetic of over 35.4 µg/mL.
For `CC1CN(C(=O)Nc2ccc(F)cc2F)CC(C)O1` (stereo unspecified), the solubility kinetic was over 40.5 µg/mL.
With `Cc1onc(-c2ccccc2)c1CNS(=O)(=O)c1ccccc1` the solubility kinetic was 44 µg/mL (≈ 134 µM).
`COc1ccc(S(=O)(=O)N2CCN(CC(=O)N3CCOCC3)CC2)cc1OC` showed a solubility kinetic of over 62 µg/mL.
With `CCn1c(=O)c2ccccc2n(Cc2ccc([N+](=O)[O-])cc2)c1=O` the solubility kinetic was 5.6 µg/mL (≈ 17.2 µM).
With `Cc1cnc(C(=O)OCC(=O)Nc2cccc(C)c2C)cn1` the solubility kinetic was over 44.9 µg/mL.
For `O=C(CN1C(=O)NC2(CCc3ccccc32)C1=O)c1ccc(Br)cc1` (stereo unspecified), the solubility kinetic was 4.4 µg/mL (≈ 11 µM).
With `COc1ccc([N+](=O)[O-])cc1NC(=O)c1ccco1` the solubility kinetic was 4.3 µg/mL (≈ 16.4 µM).
Molecule `COc1ccc(CC(=O)Nc2ccc3nc(SC)sc3c2)cc1OC` has a solubility kinetic of 34.3 µg/mL (≈ 91.6 µM).
With `Cc1sc2ncnc(SCC(=O)NC(C)C(C)C)c2c1C` (stereo unspecified) the solubility kinetic was 4.6 µg/mL (≈ 14.2 µM).
`Cc1ccc(Sc2ccc(C(=O)N(C)C)cc2[N+](=O)[O-])cc1` gave a solubility kinetic of 35 µg/mL (≈ 111 µM).
`Cn1c(SCC(=O)Nc2ccc3c(c2)OCCO3)nnc1-c1ccncc1` showed a solubility kinetic of over 57.5 µg/mL.
`CC(=O)c1cccc(NC(=O)CCC(=O)c2ccc(F)cc2)c1` gave a solubility kinetic of 3.8 µg/mL (≈ 12.1 µM).
Work on `NS(=O)(=O)c1ccc(CNC(=S)NC2CCCCC2)cc1` yielded a solubility kinetic of 47.9 µg/mL (≈ 146 µM).
`CCCCCCn1c(N2CCCC2)nc2c1c(=O)[nH]c(=O)n2C` showed a solubility kinetic of over 47.9 µg/mL.
Work on `CCOC(=O)COc1ccccc1/C=C1\NC(=O)NC1=O` yielded a solubility kinetic of 33 µg/mL (≈ 114 µM).
With `O=C(COC(=O)C1CCC1)NCc1ccc(Cl)cc1Cl` the solubility kinetic was over 47.4 µg/mL.
Work on `O=C(O)CCSc1nc2ccccc2n1-c1ccccc1` yielded a solubility kinetic of over 44.8 µg/mL.
`COc1ccc(CNC(=O)CSc2nc3ccccc3n2C(C)=O)cc1` showed a solubility kinetic of 21.2 µg/mL (≈ 57.4 µM).
Molecule `Cc1cc2oc(=O)cc(C)c2cc1NC(=O)CCl` has a solubility kinetic of 39.4 µg/mL (≈ 148 µM).
With `Cc1ccc[n+](CC(=O)Nc2ccc(N(C)C)cc2)c1.[Cl-]` the solubility kinetic was over 45.9 µg/mL.
`O=C(CN1CCN(C/C=C/c2ccccc2)CC1)Nc1ccc(F)cc1F` showed a solubility kinetic of 49.9 µg/mL (≈ 134 µM).
With `COc1ccc(C(CC(=O)N2CCCC2)c2ccc(F)cc2)cc1` (stereo unspecified) the solubility kinetic was 44.3 µg/mL (≈ 135 µM).
With `CCOc1ccc(C(=O)Nc2cccc3cccnc23)cc1` the solubility kinetic was 0.7 µg/mL (≈ 2.39 µM).
In the case of `Cn1cccc1C(=O)OCc1ccc(F)cc1`, the solubility kinetic was under 0.5 µg/mL.
`CC1(NC(=O)Nc2ccccc2)CCS(=O)(=O)C1` (stereo unspecified) gave a solubility kinetic of over 40.2 µg/mL.
In the case of `Cc1cccc(NC(=O)CCCC(=O)OC(C)C(=O)c2ccccc2)c1` (stereo unspecified), the solubility kinetic was 46.1 µg/mL (≈ 130 µM).
In the case of `CCOc1ccccc1C(=O)NN1CCOCC1`, the solubility kinetic was over 37.5 µg/mL.
`COc1ccc(NC(=O)c2cc([N+](=O)[O-])ccc2N2CCCCC2)cc1OC` showed a solubility kinetic of 14 µg/mL (≈ 36.3 µM).
Work on `O=C(COc1ccc(Cl)c2cccnc12)N1CCOCC1` yielded a solubility kinetic of 42.5 µg/mL (≈ 139 µM).
`O=C(c1cc2cc(Cl)ccc2[nH]1)N1CCc2ccccc2C1` showed a solubility kinetic of 0.9 µg/mL (≈ 2.9 µM).
`CS(=O)(=O)N1CCCC(C(=O)Nc2ccc(F)c(F)c2)C1` (stereo unspecified) gave a solubility kinetic of over 47.8 µg/mL.
Molecule `O=C(Nc1nccs1)C(Cl)(Cl)Cl` has a solubility kinetic of over 36.8 µg/mL.
Molecule `Cc1sc2nc(CSC(C)C(=O)N3CCOCC3)[nH]c(=O)c2c1C` (stereo unspecified) has a solubility kinetic of over 55.1 µg/mL.
In the case of `COc1cc(OC)c(C=O)c(OC(=O)N(C)C)c1`, the solubility kinetic was 35.8 µg/mL (≈ 141 µM).
In the case of `O=C(c1cnsn1)N1CCC(CO)(Cc2cccc(F)c2)CC1`, the solubility kinetic was 44.4 µg/mL (≈ 132 µM).
For `CCC(C(=O)OCCOCCN(CC)CC)c1ccccc1` (stereo unspecified), the solubility kinetic was 41.1 µg/mL (≈ 134 µM).
For `COC(=O)c1cc(S(=O)(=O)Nc2ccc(C)cn2)c[nH]1`, the solubility kinetic was 43.9 µg/mL (≈ 149 µM).
In the case of `CC(=O)Nc1ccc(NC=C(C#N)C#N)cc1`, the solubility kinetic was 4.2 µg/mL (≈ 18.6 µM).
`COc1ccc(S(=O)(=O)N2CCN(CCc3ccccc3)CC2)cc1` gave a solubility kinetic of 1.5 µg/mL (≈ 4.16 µM).
For `CCN(CC)C(=O)CSc1nc(-c2ccccc2)ccc1C#N`, the solubility kinetic was 0.6 µg/mL (≈ 1.84 µM).
Work on `Cc1nc([N+](=O)[O-])cn1CC(=O)c1ccc(Cl)cc1` yielded a solubility kinetic of 3.7 µg/mL (≈ 13.2 µM).
`O=C(NCC(=O)N1CCCCCC1)c1ccc(Cl)cc1` gave a solubility kinetic of over 44.2 µg/mL.
`O=C(Cc1ccc(Cl)cc1)Nc1ccccn1` gave a solubility kinetic of over 37 µg/mL.
Work on `N#Cc1ccc(COC(=O)c2cnc(Cl)c(Cl)c2)cc1` yielded a solubility kinetic of 1.4 µg/mL (≈ 4.56 µM).
For `CC(OC(=O)c1ccc(NC(=O)CC#N)cc1)C(=O)NC(c1ccccc1)c1ccccc1` (stereo unspecified), the solubility kinetic was 8.5 µg/mL (≈ 19.3 µM).
For `COc1cc(N2CCCC2)c(OC)cc1C=O`, the solubility kinetic was over 35.3 µg/mL.
Molecule `C=Cn1cc[n+](CC(=O)c2ccc(OC)c(OC)c2)c1.[Br-]` has a solubility kinetic of over 53 µg/mL.
Work on `COc1cc(C(=O)N2C(=O)CCC2=O)cc(OC)c1OC` yielded a solubility kinetic of 35.4 µg/mL (≈ 121 µM).
Molecule `CC1C(=O)N2CCCc3cc(NC(=O)CC(C)(C)C)cc1c32` (stereo unspecified) has a solubility kinetic of 39.7 µg/mL (≈ 132 µM).
In the case of `COC(=O)CNC(=O)COC(=O)Cc1ccc(Cl)cc1`, the solubility kinetic was over 45 µg/mL.
In the case of `O=C(c1ccc(Oc2cc(Cl)cc(Cl)c2)o1)N1CCCCC1`, the solubility kinetic was 7.7 µg/mL (≈ 22.6 µM).
In the case of `CCc1ccccc1NS(=O)(=O)c1cccc2nsnc12`, the solubility kinetic was 44.8 µg/mL (≈ 140 µM).
`O=C1NC(=S)N/C1=C/c1cccc2ccccc12` gave a solubility kinetic of 1.7 µg/mL (≈ 6.68 µM).
Work on `Cc1ccc2cc(C)c(SCC(=O)NCC3CCCO3)nc2c1` (stereo unspecified) yielded a solubility kinetic of 48.2 µg/mL (≈ 146 µM).
Molecule `O=C(Nc1ccc(F)cc1)Nc1cnccn1` has a solubility kinetic of 27.9 µg/mL (≈ 120 µM).
`CCc1ccc(NC(=O)NCc2cccnc2)cc1` gave a solubility kinetic of over 38.3 µg/mL.
Molecule `O=C(NC1CCCC1)C1CCCN(S(=O)(=O)c2ccc(F)cc2)C1` (stereo unspecified) has a solubility kinetic of 3.4 µg/mL (≈ 9.59 µM).
`COC(=O)C1Cc2c([nH]c3ccccc23)C(C(C)C)N1` (stereo unspecified) showed a solubility kinetic of 33.4 µg/mL (≈ 123 µM).
Molecule `CCC(=O)NCc1ccc(-c2nc3ncccc3o2)cc1` has a solubility kinetic of over 42.2 µg/mL.
Molecule `c1ccc2c(SCc3cn4ccccc4n3)nncc2c1` has a solubility kinetic of over 43.9 µg/mL.
Molecule `O=C(COC(=O)c1ccc(F)cc1)NCC1COc2ccccc2O1` (stereo unspecified) has a solubility kinetic of over 51.8 µg/mL.
Work on `CCOC(=O)/C(C#N)=C/Nc1cc(F)ccc1C` yielded a solubility kinetic of 3.2 µg/mL (≈ 12.9 µM).
